Measurements as given in patent US7341836B2, “Modified cyclic nucleotide gated ion channels” (The Regents of the University of Colorado, priority 2001, dated 2008).
Entries after “also recorded” stand apart in the source; their conditions may differ.

Tests used:
PDE VII = target: T1, PDE VII (UniProt Q9QXQ1); conditions: cited from earlier work
T1 sequence (Q9QXQ1 1-446): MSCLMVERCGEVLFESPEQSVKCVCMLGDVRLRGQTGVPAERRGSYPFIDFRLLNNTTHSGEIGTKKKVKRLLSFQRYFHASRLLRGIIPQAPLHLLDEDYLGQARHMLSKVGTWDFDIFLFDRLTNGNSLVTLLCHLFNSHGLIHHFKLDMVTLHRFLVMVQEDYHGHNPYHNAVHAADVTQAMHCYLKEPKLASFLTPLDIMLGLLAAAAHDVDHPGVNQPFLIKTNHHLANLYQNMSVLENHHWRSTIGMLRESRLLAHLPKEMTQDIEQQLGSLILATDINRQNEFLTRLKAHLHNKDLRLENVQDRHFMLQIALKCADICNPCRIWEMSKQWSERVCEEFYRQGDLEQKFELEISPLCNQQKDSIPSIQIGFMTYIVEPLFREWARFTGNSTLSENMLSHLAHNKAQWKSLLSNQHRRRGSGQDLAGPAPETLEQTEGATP

PDE XI = target: T2, PDE XI (Homo sapiens, UniProt Q9HCR9); conditions: cited from earlier work
T2 construct: host or cells: heterologously expressed

[1] = test system: rat olfactory CNG channel α subunit; assay: Excised inside-out patch recordings, cyclic nucleotide dose-response of CNG channel constructs; assay type: biochemical; conditions: 100 μM IBMX; 1 μM PGE1
Method in brief: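 Inside-out patches were excised and recorded at 20-21° C., with symmetrical 130 mM NaCl, 2 mM HEPES, 0.02 mM EDTA, 1 mM EGTA, pH 7.6. Currents were elicited by 250 ms pulses to +50 and −50 mV; cyclic nucleotide-induced current was taken as the difference with and without cNMP. cAMP and cGMP dose-responses were fitted to the Hill equation for K1/2 and N.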

[2] = test system: HEK-293 cells expressing C460W/E583M channels; assay: PGE1-induced cAMP responses in cell populations (Ca2+ influx through C460W/E583M channels); assay type: cell-based, human; conditions: for effect of PDE inhibitor added after PGE1: 100 μM IBMX or 10 μM RO-20-1724
Description: In this Example, experiments conducted to detect cAMP levels in cells are described. Changes in cyclic AMP concentrations in response to PGE1 stimulation were monitored in HEK-293 cells by measuring Ca^2+ influx through C460W/E583M CNG channels (See, Rich et al. [2001], supra). HEK-293 cells express a variety of extracellular receptors including prostanoid receptors (Thomas and Hoffman, Mol. Pharmacol., 49:907-914 [1996]), and the cAMP-specific PDE type IV (Rich et al. [2001], supra; and Hoffmann et al., EMBO J., 18:893-903 [1999]). Based on PCR analysis, these cells also appear to express AC types II, […], VI, and VII, (Hellevuo et al., Biochem. Biophys. Res. Commun., 192:311-318 [1993]). C460W/E583M channels were expressed heterologously using an adenovirus construct (See, Rich et al. [2001], supra). The Ca^2+ permeability of the channel was used to detect changes in local cAMP concentration; the fluorescent indicator fura-2 was used to monitor Ca^2+ entry. With this approach, incremental changes in cAMP concentration are readily detected as changes in relative Ca^2+ influx rates through C460W/E583M channels (See, Rich et al., [2001], supra).
Transient responses were observed over a large range of PGE1 concentrations, from 0.01 to 10 μM (FIG. 17, Panel A). […] The decline was unlikely to result primarily from a reduction in AC activity (e.g., receptor desensitization), because of the sustained accumulation of total cellular cAMP in the presence of IBMX (See, FIG. 16, Panel B). To verify this, 100 μM IBMX was added at various times after PGE1 application.
To test whether PGE1 did indeed increase the total PDE activity, 100 nM PGE1 were added at various times after the initial application of 100 nM PGE1 (a subsaturating concentration). There was a negligible response to the subsequent addition of PGE1, even after 50 min (FIG. 17, Panel D). Taken together, the results of the experiments shown in FIG. 17, Panels C and D argue that the cAMP transient is due to an initial increase in AC activity, followed by a more profound increase in PDE activity. […] As indicated herein, these processes are crucial for the generation of spatially and temporally distinct cAMP signals.

PDE VI = conditions: cited from earlier work
PDE III = conditions: cited from earlier work
PDE IV = conditions: cited from earlier work

T2 sequence (Q9HCR9 445-933 limits assumed): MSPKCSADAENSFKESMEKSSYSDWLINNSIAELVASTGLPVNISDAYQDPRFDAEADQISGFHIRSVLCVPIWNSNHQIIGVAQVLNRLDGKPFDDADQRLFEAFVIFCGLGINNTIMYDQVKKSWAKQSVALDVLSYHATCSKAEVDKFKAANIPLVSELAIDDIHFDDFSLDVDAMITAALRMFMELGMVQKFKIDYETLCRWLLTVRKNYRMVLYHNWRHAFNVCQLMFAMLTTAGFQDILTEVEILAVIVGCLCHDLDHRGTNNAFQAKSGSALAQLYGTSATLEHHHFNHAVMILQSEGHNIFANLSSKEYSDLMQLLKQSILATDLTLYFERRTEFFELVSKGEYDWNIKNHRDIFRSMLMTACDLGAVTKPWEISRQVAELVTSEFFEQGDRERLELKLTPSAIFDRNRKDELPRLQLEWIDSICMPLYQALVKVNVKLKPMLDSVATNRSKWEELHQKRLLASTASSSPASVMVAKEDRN

| Structure (SMILES) | IC50 (PDE VII) [µM] | IC50 (PDE XI) [µM] | effect on CNG channel activity in excised membrane patches [1] | slopes of the IBMX-induced responses ([2]; 100 μM IBMX added 1-50 min after 100 nM PGE1) [s⁻¹] | effect of PDE inhibitor added after PGE1 [2] | IC50 (PDE VI) [µM] | IC50 (PDE III) [µM] | IC50 (PDE IV) [µM] |
| --- | --- | --- | --- | --- | --- | --- | --- | --- |
| CCCCCC[C@@H]([C@@H](C)O)n1cnc2c(N)ncnc21 (racemic) [EHNA] | > 100 |  |  |  |  |  |  |  |
| CC(C)Cn1c(=O)n(C)c(=O)c2[nH]cnc21 [IBMX, 3-isobutyl-1-methylxanthine] | 2 to 8 | 49.8 | did not alter CNG channel activity; also recorded: no effect on channel activity | 0.0044 ± 0.0008 | triggered a rapid Ca^2+ influx | 10 | 2 | 5 to 15 |
| CCCCOc1cc(CC2CNC(=O)N2)ccc1OC (stereo not drawn) [RO-20-1724, 4-(3-butoxy-4-methoxybenzyl)-2-imidazolidinone] | > 200 |  | no effect on channel activity |  | caused sharp increases in cAMP |  | 52 |  |
| COc1ccc(C2CNC(=O)C2)cc1OC1CCCC1 (stereo not drawn) [Rolipram] | > 100 | > 100 |  |  |  |  |  |  |
